The record followed here is patent publication US20240065983A1, “COMPOSITION AND METHOD FOR TREATING COVID-19” (University of South Florida, priority 2021, published 2024).

In data set [1] the test system is icSARS-CoV-2nMG (CoV2-GFP). Type of data set: cell-based, SARS-CoV-2.
Data set [2] deals with mouse coronavirus MHV-A59-GFP.
In data set [3] the test system is Delta strain. Put plainly: Plaque assay, Delta strain. The class given is cell-based, SARS-CoV-2.
In data set [4] the test system is mouse coronavirus MHV-A59-GFP. The data set is described as follows: microbe, parasite or virus in culture. To be noted: read-out: inhibition of infection.
In data set [5] the test system is WA strain. Put plainly: Plaque assay, WA strain. The class given is cell-based, SARS-CoV-2.
Data set [6] has as its system mouse coronavirus (MHV), K18 hACE2 transgenic mouse, and mouse adapted coronavirus (MA10) infection models.
Data set [7] deals with T1, RBD-ACE2 interaction (Severe acute respiratory syndrome coronavirus 2, UniProt P0DTC2).
T1 construct: purchased Genscript
Type of data set: binding. To be noted: compared to the negative control.

The subject of data set [8] is human coronavirus NL63. The data set is described as follows: Gene expression (qPCR) in NL63 infected Calu3 cells. Type of data set: cell-based. The note with it: NL63 0.1 MOI, LG 20 uM, 48 hrs PI. On the procedure:
(§1) FIG. 2A-B are a series of graphs depicting broad spectrum anti-viral and anti-inflammatory activity of LG. Histograms showing mRNA expression assessed by qPCR. A) Effect of LG on poly I:C (P I:C) stimulated Calu 3 cells with or without LG treatment, B) Anti-inflammatory effect of LG treatment in NL63 infected Calu 3 cells. Cells were collected 48 hrs of post infection (PI) with NL63 virus (0.1 MOI) (C, Control) and treated with LG (20 uM) (T, Treatment), n=3, Data expressed as mean±SEM, * Compared to NL63, *p<0.05, **p<0.005, ***p<0.0005.
(§2) To examine whether LG has broad spectrum antiviral activity, Calu3 cells are stimulated with 10 ug/ml poly IC for 24 h, treated with 20 uM LG for 48 h, and then RNA was isolated for gene expression analyses. […] Further the inventors examined the effect of LG on the Calu3 lung cells infected with human coronavirus NL63.
In general terms: Real-time PCR tracks product formation cycle by cycle.

The subject of data set [9] is poly I:C stimulated Calu 3 cells. The data set is described as follows: Gene expression (qPCR) in poly I:C stimulated Calu3 cells. The class given is cell-based. To be noted: 10 ug/ml poly IC 24 h, 20 uM LG 48 h. On the procedure: as §1, §2
Data set [10] relates to icSARS-CoV-2nMG. Type of data set: cell-based, SARS-CoV-2.

By inhibition is commonly meant the relative decrease from the control value, in per cent. As to `CC(O)c1ccc(CCOc2ccc(CC3SC(=O)NC3=O)cc2)nc1` (stereo not drawn) [LG, leriglitazone], the CoV2 infection result in data set [1] is recorded as “dose-dependent decrease of CoV2 infection”. Moreover, the “infected GFP-positive cells” value in data set [1] (LG 20 uM, WA strain, Caco2) is “significant reduction in infected GFP-positive cells”. In addition, in data set [2] (20 uM LG, DBT cells), the “cell killing (bright field images)” value is “without killing the cells”. Also, in data set [2] (DBT cells, GFP), the “inhibition of coronavirus infection (dose dependence)” value was “inhibited coronavirus infection in a dose-dependent fashion”. Further, in [2] (LG 20 uM vs Remdesvir 10 nM), the “reduction in infection versus Remdesvir” value is given as “significantly higher reduction in infection”. In [2] (LG 20 uM, compared to vehicle control), the N transcript result is on record as “significant reduction in N transcript”. For the same compound, the “reduction in plaque titers” value in [3] and in [5] was more than 2 log in each case. Further, in data set [4], the inhibition at 20 µM is more than 70%. The “efficacy in in vivo studies” value in data set [6] is on record as more than 70%. The “interference of RBD-ACE2 interaction” value in [7] is “significantly inhibited the RBD-ACE2 interaction in a dose-dependent manner”. The “expression of anti-inflammatory genes at transcript level” value in data set [8] is recorded as “altered expression of anti-inflammatory genes at the transcript level similar to that found in poly-IC experiment”. Also, the “expression of IL-6, IL1β, IFNγ, TNFα, NFkB, NLRP3” value in [9] is on record as “inhibits expression”. In [9], the “expression of IL-10 and PPARγ” value was “increases expression”.

Consider `CCCCC/C=C\C/C=C\CCCCCCCC(=O)O` [LLA, linoleic acid], for which the “viral infection as seen by N gene expression” value in [10] is listed as “significantly decreased viral infection”.
